The values that follow come from patent publication US20260325533A1, “CDK INHIBITOR COMPOUNDS” (ALEKSIA THERAPEUTICS, INC., priority 2023, published 2026).

Where two headings read alike, the source gives them in different places.

Common to all, as to type: biochemical
Assay [1] has as its target CDK2/CCNE1 (Homo sapiens, UniProt P24941). The assay can be described thus: CDK2 homogeneous time-resolved fluorescence (HTRF) kinase assay. The conditions noted are these: CDK2/CCNE. The method in brief:
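3 nM CDK2/CCNE1 was preincubated with compound for 20 min at 23 °C in HEPES buffer (pH not stated), then reacted 60 min with 1 mM ATP and 50 nM ULight-4E-BP1 (Thr37/46) peptide. After EDTA stop, Eu-anti-phospho-4E-BP1 antibody (2 nM) was added for 60 min and TR-FRET read at 665 nm.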
In general terms: Time-resolved FRET reads energy transfer from a long-lived donor to a nearby acceptor.

Assay [2] addresses CDK1/CCNB1 (Homo sapiens, UniProt P06493). In words: CDK1 homogeneous time-resolved fluorescence (HTRF) kinase assay. To be noted: CDK1/CCNB. The method in brief: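 0.5 nM CDK1/CCNB1 was preincubated 20 min at 23 °C with compound in HEPES pH-unspecified buffer (MgCl2, EGTA, DTT, Tween 20), then reacted 60 min with 1 mM ATP and 50 nM ULight-4E-BP1 (Thr37/46) peptide. EDTA-stopped reactions were detected with 2 nM Eu-anti-phospho antibody; IC50 from 11-point half-log titrations.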

Assay [3] has as its target CDK4/CCND3 (Homo sapiens, UniProt P11802). The assay can be described thus: CDK4 homogeneous time-resolved fluorescence (HTRF) kinase assay. The conditions noted are these: CDK4/CCND. The method in brief: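 Compounds were preincubated with 1.5 nM CDK4/CCND3 for 20 min at 23 °C in HEPES buffer (pH not given), then reacted 60 min with 1 mM ATP and 50 nM ULight-4E-BP1 (Thr37/46) peptide. EDTA stop, Eu-anti-phospho-4E-BP1 detection; 665/615 nm ratio; IC50 from 11-point half-log titrations from 10 μM.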

The target of assay [4] is CDK6/CCND1 (Homo sapiens, UniProt Q00534). In words: CDK6 homogeneous time-resolved fluorescence (HTRF) kinase assay. The conditions noted are these: CDK6/CCND. The essentials: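 1 nM enzyme, 1 mM ATP, 50 nM ULight-4E-BP1 (Thr37/46) peptide, 1% DMSO; 20 min compound preincubation, 60 min reaction, 23 °C. EDTA stop, 2 nM Eu-anti-phospho-4E-BP1 antibody 60 min. TR-FRET 665 nm (or 665/615 ratio); IC50 from 11-point half-log titration, top 10 μM.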
Chain of CDK6/CCND1 (Q00534 whole entry): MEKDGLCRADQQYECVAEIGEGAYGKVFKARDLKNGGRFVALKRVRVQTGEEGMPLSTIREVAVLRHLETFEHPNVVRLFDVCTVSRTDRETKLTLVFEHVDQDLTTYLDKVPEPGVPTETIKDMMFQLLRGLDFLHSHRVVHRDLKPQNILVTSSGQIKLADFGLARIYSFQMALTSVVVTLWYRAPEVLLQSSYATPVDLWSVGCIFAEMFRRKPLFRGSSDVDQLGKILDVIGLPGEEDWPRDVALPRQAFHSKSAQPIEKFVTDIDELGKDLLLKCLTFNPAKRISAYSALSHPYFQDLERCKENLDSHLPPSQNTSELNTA
Chain of CDK6/CCND1 (P24385 whole entry partner): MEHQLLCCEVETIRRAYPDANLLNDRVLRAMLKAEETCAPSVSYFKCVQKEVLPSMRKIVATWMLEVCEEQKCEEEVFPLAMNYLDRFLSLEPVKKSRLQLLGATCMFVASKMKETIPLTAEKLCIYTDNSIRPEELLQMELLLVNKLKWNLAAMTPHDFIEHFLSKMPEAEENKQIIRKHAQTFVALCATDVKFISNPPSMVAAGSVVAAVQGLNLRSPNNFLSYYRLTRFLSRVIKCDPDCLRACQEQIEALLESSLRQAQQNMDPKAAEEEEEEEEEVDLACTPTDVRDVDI

The mark [5] stands for this setting: x = IC50 25-250 nM, read-out: CDK2/CCNE IC50 (25-250 nM).
[6] abbreviates: x = IC50 >250 nM, read-out: CDK1/CCNB IC50 (>250 nM column).
[7] abbreviates: x = IC50 >250 nM, read-out: CDK4/CCND IC50 (>250 nM column).
The mark [8] stands for this setting: x = IC50 >250 nM, read-out: CDK6/CCND IC50 (>250 nM column).
Setting [9] is: x = IC50 <25 nM, read-out: CDK2/CCNE IC50 (<25 nM).
Setting [10] is: x = IC50 25-250 nM, read-out: CDK1/CCNB IC50 (25-250 nM).
The mark [11] stands for this setting: x = IC50 25-250 nM, read-out: CDK4/CCND IC50 (25-250 nM).
The mark [12] stands for this setting: 25-250 nM, read-out: CDK2/CCNE IC50, 25-250 nM.
Where [13] appears, read: >250 nM, read-out: CDK1/CCNB IC50 >250 nM.
[14] abbreviates: >250 nM, read-out: CDK4/CCND IC50, >250 nM.
[15] abbreviates: >250 nM, 1 mM ATP, read-out: CDK6/CCND IC50, >250 nM.

Chain of CDK4/CCND3 (P11802 whole entry): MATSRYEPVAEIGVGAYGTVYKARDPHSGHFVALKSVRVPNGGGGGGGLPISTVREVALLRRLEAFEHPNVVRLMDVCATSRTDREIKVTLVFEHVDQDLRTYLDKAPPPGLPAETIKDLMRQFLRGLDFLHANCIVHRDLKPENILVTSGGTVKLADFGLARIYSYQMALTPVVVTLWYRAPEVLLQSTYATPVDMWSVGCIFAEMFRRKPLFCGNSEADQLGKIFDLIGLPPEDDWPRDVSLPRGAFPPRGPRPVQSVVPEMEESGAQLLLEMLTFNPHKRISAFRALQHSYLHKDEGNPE
Chain of CDK4/CCND3 (P30281 whole entry partner): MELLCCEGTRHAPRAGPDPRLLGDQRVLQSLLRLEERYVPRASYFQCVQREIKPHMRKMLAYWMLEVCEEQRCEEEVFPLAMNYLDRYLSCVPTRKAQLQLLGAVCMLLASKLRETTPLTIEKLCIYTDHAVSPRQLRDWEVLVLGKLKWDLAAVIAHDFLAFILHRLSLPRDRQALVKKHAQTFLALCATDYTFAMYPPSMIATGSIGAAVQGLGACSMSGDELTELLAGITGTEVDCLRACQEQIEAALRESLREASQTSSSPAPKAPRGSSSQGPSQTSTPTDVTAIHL
Chain of CDK1/CCNB1 (P06493 whole entry): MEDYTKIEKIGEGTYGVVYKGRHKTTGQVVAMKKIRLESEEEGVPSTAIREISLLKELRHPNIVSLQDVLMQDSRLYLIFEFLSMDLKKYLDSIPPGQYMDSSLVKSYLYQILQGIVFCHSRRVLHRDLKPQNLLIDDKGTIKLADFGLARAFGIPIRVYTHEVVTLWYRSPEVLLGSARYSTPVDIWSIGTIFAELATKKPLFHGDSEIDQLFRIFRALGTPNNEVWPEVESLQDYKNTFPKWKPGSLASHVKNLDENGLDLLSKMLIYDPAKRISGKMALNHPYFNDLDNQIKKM
Chain of CDK1/CCNB1 (P14635 whole entry partner): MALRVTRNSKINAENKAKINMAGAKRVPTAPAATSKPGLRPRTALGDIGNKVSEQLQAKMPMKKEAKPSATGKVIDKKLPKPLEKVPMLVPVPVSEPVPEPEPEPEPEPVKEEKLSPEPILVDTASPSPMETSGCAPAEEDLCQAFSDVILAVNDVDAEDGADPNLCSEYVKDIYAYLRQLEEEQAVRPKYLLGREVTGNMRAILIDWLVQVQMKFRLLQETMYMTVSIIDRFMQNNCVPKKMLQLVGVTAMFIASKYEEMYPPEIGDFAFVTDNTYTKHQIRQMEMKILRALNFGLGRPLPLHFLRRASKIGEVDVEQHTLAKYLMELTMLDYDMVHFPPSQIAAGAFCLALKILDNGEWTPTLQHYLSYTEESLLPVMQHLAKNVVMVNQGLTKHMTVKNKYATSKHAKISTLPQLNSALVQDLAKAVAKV

Turning to `N#Cc1ccc(C#Cc2nccc3cnc(Nc4ccc(S(=O)(=O)CCO)cc4)cc23)cc1` [Ex 665, 4-((7-((4-((2-hydroxyethyl)sulfonyl)phenyl)amino)-2,6-naphthyridin-1-yl)ethynyl)benzonitrile], the IC50 in assay [1] (setting [5]) is 25 to 250 nM; in assay [2] (setting [6]) it was > 250 nM; in assay [3] (setting [7]), > 250 nM; in assay [4] (setting [8]), > 250 nM.

`CS(=O)(=O)c1ccc(Nc2cc3c(C#Cc4ccc(=O)[nH]c4)nccc3cn2)cc1` [Ex 667, 5-((7-((4-(methylsulfonyl)phenyl)amino)-2,6-naphthyridin-1-yl)ethynyl)pyridin-2(1H)-one]: the IC50 in assay [1] (setting [9]) is < 25 nM; in assay [2] (setting [10]) it was 25 to 250 nM; in assay [3] (setting [11]), 25 to 250 nM; in assay [4] (setting [8]), > 250 nM.

Take `CS(=O)(=O)c1ccc(Nc2cc3c(C#Cc4ccc(C#N)nc4)nccc3cn2)cc1` [Ex 669, 5-((7-((4-(methylsulfonyl)phenyl)amino)-2,6-naphthyridin-1-yl)ethynyl)picolinonitrile]: the IC50 was 25 to 250 nM in assay [1] (setting [5]), > 250 nM in assay [2] (setting [6]), > 250 nM in assay [3] (setting [7]) and > 250 nM in assay [4] (setting [8]).

For `Cc1c(-c2nccc3cnc(Nc4ccc(S(N)(=O)=O)cc4)cc23)ccc2c1cnn2CCO` [Ex 673, 4-((5-(1-(2-hydroxyethyl)-4-methyl-1H-indazol-5-yl)-2,6-naphthyridin-3-yl)amino)benzenesulfonamide], the IC50 in assay [1] (setting [9]) is < 25 nM; in assay [2] (setting [10]), 25 to 250 nM; in assay [3] (x = IC50 <25 nM, read-out: CDK4/CCND IC50 (<25 nM)), < 25 nM; in assay [4] (x = IC50 <25 nM, read-out: CDK6/CCND IC50 (<25 nM)), < 25 nM.

`Cc1c(-c2nccc3cnc(Nc4ccc(S(C)(=O)=O)cc4)cc23)ccc2c1cnn2CC(N)=O` [Ex 676, 2-(4-methyl-5-(7-((4-(methylsulfonyl)phenyl)amino)-2,6-naphthyridin-1-yl)-1H-indazol-1-yl)acetamide]: the IC50 was < 25 nM in assay [1] (setting [9]); 25 to 250 nM in assay [2] (setting [10]); 25 to 250 nM in assay [3] (setting [11]); 25 to 250 nM in assay [4] (x = IC50 25-250 nM, read-out: CDK6/CCND IC50 (25-250 nM)).

On to `Cc1c(-c2nccc3cnc(Nc4ccc(S(=O)(=O)NCC(F)(F)F)cc4)cc23)ccc2c1cnn2CC(O)(C(F)(F)F)C(F)(F)F` [Ex 684, 4-((5-(4-methyl-1-(3,3,3-trifluoro-2-hydroxy-2-(trifluoromethyl)propyl)-1H-indazol-5-yl)-2,6-naphthyridin-3-yl)amino)-N-(2,2,2-trifluoroethyl)benzenesulfonamide], for which the IC50 is 25 to 250 nM in assay [1] (setting [12]), > 250 nM in assay [2] (setting [13]), > 250 nM in assay [3] (setting [14]) and > 250 nM in assay [4] (setting [15]).

In the case of `Cc1ccc(NS(=O)(=O)c2ccc(Nc3cc4c(-c5ccc6c(cnn6CC(O)(C(F)(F)F)C(F)(F)F)c5C)nccc4cn3)cc2)nc1N1CCOCC1` [Ex 694, 4-((5-(4-methyl-1-(3,3,3-trifluoro-2-hydroxy-2-(trifluoromethyl)propyl)-1H-indazol-5-yl)-2,6-naphthyridin-3-yl)amino)-N-(5-methyl-6-morpholinopyridin-2-yl)benzenesulfonamide], the IC50 is 25 to 250 nM in assay [1] (setting [12]), > 250 nM in assay [2] (setting [13]), > 250 nM in assay [3] (setting [14]) and > 250 nM in assay [4] (setting [15]).

As to `CCNS(=O)(=O)c1ccc(Nc2cc3c(-c4ccc5c(cnn5CC(O)(C(F)(F)F)C(F)(F)F)c4C)nccc3cn2)cc1` [Ex 695, N-ethyl-4-((5-(4-methyl-1-(3,3,3-trifluoro-2-hydroxy-2-(trifluoromethyl)propyl)-1H-indazol-5-yl)-2,6-naphthyridin-3-yl)amino)benzenesulfonamide], the IC50 in assay [1] (<25 nM, read-out: CDK2/CCNE IC50, <25 nM) is < 25 nM; in assay [2] (setting [13]), > 250 nM; in assay [3] (setting [14]), > 250 nM; in assay [4] (setting [15]), > 250 nM.
